Measurements reported in ChEMBL document CHEMBL3727357, “Compositions and methods for inhibiting g protein signaling” (2010).
Activity calls are given as the source filed them. No cut-off for these calls is given here.

How the values were obtained:
Mus musculus [1] = test: Antiinflammatory activity in Swiss-Webster mouse carrageenan-induced paw edema model assessed as reduction of paw exudate volume at 2.5 mg/kg, ip administered 1 hr followed by carrageenan challenge; format: functional, organism-based
Mus musculus [2] = test: Antiinflammatory activity in Swiss-Webster mouse carrageenan-induced paw edema model assessed as inhibition of neutrophils recruitment in edematous fluid at 2.5 mg/kg, ip administered 1 hr followed by carrageenan challenge; format: functional, organism-based
Mus musculus [3] = test: Antiinflammatory activity in Swiss-Webster mouse assessed as inhibition of carrageenan-induced paw edema at 2.5 mg/kg, ip administered 1 hr followed by carrageenan challenge measured 3 times every 2 hrs; format: functional, organism-based
[4] = target: Delta-type opioid receptor (Homo sapiens) (UniProt P41143); conditions: CHO, 100 uM
Description: Inhibition of human Gbetagamma-dependent delta opioid receptor-mediated PLC activation expressed in CHO cells assessed as reduction of DPDPE-mediated total inositol phosphate production at 100 uM after 30 mins by scintillation counting analysis in presence of [3H]inositol

[5] = target: Delta-type opioid receptor (Homo sapiens) (UniProt P41143); conditions: CHO, 100 uM; remark: listed apart in the source
Description: Inhibition of human Gbetagamma-dependent delta opioid receptor-mediated PLC activation expressed in CHO cells assessed as reduction of Deltorphin 2-mediated total inositol phosphate production at 100 uM after 30 mins by scintillation counting analysis in presence of [3H]inositol

Sequence of Delta-type opioid receptor (Homo sapiens) (P41143 whole entry): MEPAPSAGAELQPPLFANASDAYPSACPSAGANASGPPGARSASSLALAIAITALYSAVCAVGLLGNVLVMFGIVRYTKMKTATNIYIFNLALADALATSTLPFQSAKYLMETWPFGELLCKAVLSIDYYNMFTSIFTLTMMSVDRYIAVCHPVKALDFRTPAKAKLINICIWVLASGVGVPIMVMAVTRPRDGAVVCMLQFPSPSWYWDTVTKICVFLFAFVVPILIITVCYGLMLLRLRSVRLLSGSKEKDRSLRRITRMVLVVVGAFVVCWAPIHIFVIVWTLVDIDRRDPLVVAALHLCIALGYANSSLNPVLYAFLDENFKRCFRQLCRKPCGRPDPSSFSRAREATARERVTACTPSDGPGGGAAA

Compound: COc1ccc2c(c1)c(CC(=O)O)c(C)n2C(=O)c1ccc(Cl)cc1
- Activity (Mus musculus [1]): Active
- inhibition (Mus musculus [2]): Active
- inhibition (Mus musculus [3]): Active

Compound: Oc1ccc2c3c1O[C@H]1c4[nH]c5ccccc5c4C[C@@]4(O)[C@@H](C2)N(CC2CC2)CC[C@]314
- inhibition [4]: inactive
- inhibition [5]: inactive
